{"source": "patent US8952024B2", "about": "“Herbicidal pyrimidone derivatives” (E I du Pont de Nemours and Company, priority 2009, dated 2015)", "experiment_in_all_cases": "Test B pre-/postemergence plant response", "type_in_all_cases": "in vivo", "conditions_in_all_cases": "Postemergence", "key": {"[1]": {"tested_on": "lambsquarters (Chenopodium album)", "procedure,_shortened": "(§1)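 Seeds were sown in loam soil/sand blend and treated preemergence with compound in non-phytotoxic solvent mixture containing surfactant; postemergence sprays, same formulation, went onto plants 2 to 18 cm (1- to 4-leaf stage) in peat-based planting medium. Greenhouse 13 to 15 days, then visual rating versus untreated controls, 0 (no effect) to 100 (complete control).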"}, "[2]": {"tested_on": "wheat (Triticum aestivum)", "procedure,_shortened": "as §1"}, "[3]": {"tested_on": "Italian ryegrass (Lolium multiflorum)", "procedure,_shortened": "as §1"}, "[4]": {"tested_on": "goosegrass (Eleusine indica)", "procedure,_shortened": "as §1"}, "[5]": {"tested_on": "woolly cupgrass (Eriochloa villosa)", "procedure,_shortened": "as §1"}, "[6]": {"tested_on": "green foxtail (Setaria viridis)", "procedure,_shortened": "as §1"}, "[7]": {"tested_on": "ragweed (common ragweed, Ambrosia elatior)", "procedure,_shortened": "as §1"}, "[8]": {"tested_on": "pigweed (Amaranthus retroflexus)", "procedure,_shortened": "as §1"}, "[9]": {"tested_on": "large crabgrass (Digitaria sanguinalis)", "procedure,_shortened": "as §1"}, "[10]": {"tested_on": "downy bromegrass (Bromus tectorum)", "procedure,_shortened": "as §1"}, "[11]": {"tested_on": "velvetleaf (Abutilon theophrasti)", "procedure,_shortened": "as §1"}, "[12]": {"tested_on": "yellow nutsedge (Cyperus esculentus)", "procedure,_shortened": "as §1"}, "[13]": {"tested_on": "Surinam grass (Brachiaria decumbens)", "procedure,_shortened": "as §1"}}, "data": [{"smiles": "COc1ccc(-n2c(-c3ccccc3)ncc(C(=O)C3=C(O)CCCC3=O)c2=O)cc1", "note": "[Compound 4, 5-[(2-hydroxy-6-oxo-cyclohexen-1-yl)carbonyl]-3-(4-methoxyphenyl)-2-phenyl-4(3H)-pyrimidinone]", "values": [{"measurement": "pest or weed control at 31 g/ha", "setting": "[1]; Chenopodium album, post-emergence, 31 g ai/ha, scale 0 to 100 (0 no effect, 100 complete control), read-out: Plant response rating, Lambsquarters", "value": 98, "unit": "%"}, {"measurement": "pest or weed control at 62 g/ha", "setting": "[1]; Chenopodium album, post-emergence, 62 g ai/ha, scale 0 (no effect) to 100 (complete control), 13 to 15 days, read-out: Plant response rating, Lambsquarters", "value": 100, "unit": "%"}, {"measurement": "pest or weed control at 125 g/ha", "setting": "[1]; Chenopodium album, post-emergence, 125 g ai/ha, visual rating after 13 to 15 days, scale 0 (no effect) to 100 (complete control)", "value": 100, "unit": "%"}, {"measurement": "Lambsquarters plant response rating", "setting": "[1]; 250 g ai/ha, scale 0 to 100", "value": 100}, {"measurement": "Wheat plant response rating", "setting": "[2]; 250 g ai/ha, scale 0 to 100", "value": 70}, {"measurement": "plant injury at 31 g/ha", "setting": "[2]; Triticum aestivum, post-emergence, 31 g ai/ha, scale 0 to 100 (0 no effect, 100 complete control), read-out: Plant response rating, Wheat", "value": 5, "unit": "%"}, {"measurement": "plant injury at 62 g/ha", "setting": "[2]; Triticum aestivum, post-emergence, 62 g ai/ha, scale 0 (no effect) to 100 (complete control), 13 to 15 days, read-out: Plant response rating, Wheat", "value": 5, "unit": "%"}, {"measurement": "plant injury at 125 g/ha", "setting": "[2]; Triticum aestivum, post-emergence, 125 g ai/ha, visual rating after 13 to 15 days, scale 0 (no effect) to 100 (complete control)", "value": 50, "unit": "%"}, {"measurement": "pest or weed control at 31 g/ha", "setting": "[3]; Lolium multiflorum, post-emergence, 31 g ai/ha, scale 0 to 100 (0 no effect, 100 complete control), read-out: Plant response rating, Ryegrass, Italian", "value": 10, "unit": "%"}, {"measurement": "pest or weed control at 62 g/ha", "setting": "[3]; Lolium multiflorum, post-emergence, 62 g ai/ha, scale 0 (no effect) to 100 (complete control), 13 to 15 days, read-out: Plant response rating, Ryegrass, Italian", "value": 10, "unit": "%"}, {"measurement": "pest or weed control at 125 g/ha", "setting": "[3]; Lolium multiflorum, post-emergence, 125 g ai/ha, visual rating after 13 to 15 days, scale 0 (no effect) to 100 (complete control)", "value": 15, "unit": "%"}, {"measurement": "Ryegrass, Italian plant response rating", "setting": "[3]; 250 g ai/ha, scale 0 to 100", "value": 20}, {"measurement": "pest or weed control at 31 g/ha", "setting": "[4]; Eleusine indica, post-emergence, 31 g ai/ha, scale 0 to 100 (0 no effect, 100 complete control), read-out: Plant response rating, Goosegrass", "value": 25, "unit": "%"}, {"measurement": "pest or weed control at 62 g/ha", "setting": "[4]; Eleusine indica, post-emergence, 62 g ai/ha, scale 0 (no effect) to 100 (complete control), 13 to 15 days, read-out: Plant response rating, Goosegrass", "value": 75, "unit": "%"}, {"measurement": "pest or weed control at 125 g/ha", "setting": "[4]; Eleusine indica, post-emergence, 125 g ai/ha, visual rating after 13 to 15 days, scale 0 (no effect) to 100 (complete control)", "value": 85, "unit": "%"}, {"measurement": "Goosegrass plant response rating", "setting": "[4]; 250 g ai/ha, scale 0 to 100", "value": 98}, {"measurement": "pest or weed control at 31 g/ha", "setting": "[5]; Eriochloa villosa, post-emergence, 31 g ai/ha, scale 0 to 100 (0 no effect, 100 complete control), read-out: Plant response rating, Cupgrass, Woolly", "value": 75, "unit": "%"}, {"measurement": "pest or weed control at 62 g/ha", "setting": "[5]; Eriochloa villosa, post-emergence, 62 g ai/ha, scale 0 (no effect) to 100 (complete control), 13 to 15 days, read-out: Plant response rating, Cupgrass, Woolly", "value": 95, "unit": "%"}, {"measurement": "pest or weed control at 125 g/ha", "setting": "[5]; Eriochloa villosa, post-emergence, 125 g ai/ha, visual rating after 13 to 15 days, scale 0 (no effect) to 100 (complete control)", "value": 100, "unit": "%"}, {"measurement": "Cupgrass, Woolly plant response rating", "setting": "[5]; 250 g ai/ha, scale 0 to 100", "value": 100}, {"measurement": "Foxtail, Green plant response rating", "setting": "[6]; 250 g ai/ha, scale 0 to 100", "value": 60}, {"measurement": "pest or weed control at 31 g/ha", "setting": "[6]; Setaria viridis, post-emergence, 31 g ai/ha, scale 0 to 100 (0 no effect, 100 complete control), read-out: Plant response rating, Foxtail, Green", "value": 40, "unit": "%"}, {"measurement": "pest or weed control at 62 g/ha", "setting": "[6]; Setaria viridis, post-emergence, 62 g ai/ha, scale 0 (no effect) to 100 (complete control), 13 to 15 days, read-out: Plant response rating, Foxtail, Green", "value": 40, "unit": "%"}, {"measurement": "pest or weed control at 125 g/ha", "setting": "[6]; Setaria viridis, post-emergence, 125 g ai/ha, visual rating after 13 to 15 days, scale 0 (no effect) to 100 (complete control)", "value": 60, "unit": "%"}, {"measurement": "pest or weed control at 31 g/ha", "setting": "[7]; Ambrosia artemisiifolia, post-emergence, 360 h, 31 g ai/ha, scale 0 to 100 (0 no effect, 100 complete control), read-out: Plant response rating, Ragweed", "value": 100, "unit": "%"}, {"measurement": "pest or weed control at 62 g/ha", "setting": "[7]; Ambrosia artemisiifolia, post-emergence, 360 h, 62 g ai/ha, scale 0 (no effect) to 100 (complete control), 13 to 15 days, read-out: Plant response rating, Ragweed", "value": 100, "unit": "%"}, {"measurement": "pest or weed control at 125 g/ha", "setting": "[7]; Ambrosia artemisiifolia, post-emergence, 360 h, 125 g ai/ha, visual rating after 13 to 15 days, scale 0 (no effect) to 100 (complete control)", "value": 100, "unit": "%"}, {"measurement": "Ragweed plant response rating", "setting": "[7]; 250 g ai/ha, scale 0 to 100", "value": 100}, {"measurement": "pest or weed control at 31 g/ha", "setting": "[8]; Amaranthus retroflexus, post-emergence, 31 g ai/ha, scale 0 to 100 (0 no effect, 100 complete control), read-out: Plant response rating, Pigweed", "value": 100, "unit": "%"}, {"measurement": "pest or weed control at 62 g/ha", "setting": "[8]; Amaranthus retroflexus, post-emergence, 62 g ai/ha, scale 0 (no effect) to 100 (complete control), 13 to 15 days, read-out: Plant response rating, Pigweed", "value": 100, "unit": "%"}, {"measurement": "pest or weed control at 125 g/ha", "setting": "[8]; Amaranthus retroflexus, post-emergence, 125 g ai/ha, visual rating after 13 to 15 days, scale 0 (no effect) to 100 (complete control)", "value": 100, "unit": "%"}, {"measurement": "Pigweed plant response rating", "setting": "[8]; 250 g ai/ha, scale 0 to 100", "value": 100}, {"measurement": "pest or weed control at 31 g/ha", "setting": "[9]; Digitaria sanguinalis, post-emergence, 31 g ai/ha, scale 0 to 100 (0 no effect, 100 complete control), read-out: Plant response rating, Crabgrass, Large", "value": 70, "unit": "%"}, {"measurement": "pest or weed control at 62 g/ha", "setting": "[9]; Digitaria sanguinalis, post-emergence, 62 g ai/ha, scale 0 (no effect) to 100 (complete control), 13 to 15 days, read-out: Plant response rating, Crabgrass, Large", "value": 85, "unit": "%"}, {"measurement": "pest or weed control at 125 g/ha", "setting": "[9]; Digitaria sanguinalis, post-emergence, 125 g ai/ha, visual rating after 13 to 15 days, scale 0 (no effect) to 100 (complete control)", "value": 100, "unit": "%"}, {"measurement": "Crabgrass, Large plant response rating", "setting": "[9]; 250 g ai/ha, scale 0 to 100", "value": 100}, {"measurement": "pest or weed control at 31 g/ha", "setting": "[10]; Bromus tectorum, post-emergence, 31 g ai/ha, scale 0 to 100 (0 no effect, 100 complete control), read-out: Plant response rating, Bromegrass, Downy", "value": 10, "unit": "%"}, {"measurement": "pest or weed control at 62 g/ha", "setting": "[10]; Bromus tectorum, post-emergence, 62 g ai/ha, scale 0 (no effect) to 100 (complete control), 13 to 15 days, read-out: Plant response rating, Bromegrass, Downy", "value": 15, "unit": "%"}, {"measurement": "pest or weed control at 125 g/ha", "setting": "[10]; Bromus tectorum, post-emergence, 125 g ai/ha, visual rating after 13 to 15 days, scale 0 (no effect) to 100 (complete control)", "value": 50, "unit": "%"}, {"measurement": "Bromegrass, Downy plant response rating", "setting": "[10]; 250 g ai/ha, scale 0 to 100", "value": 55}, {"measurement": "pest or weed control at 31 g/ha", "setting": "[11]; Abutilon theophrasti, post-emergence, 360 h, 31 g ai/ha, scale 0 to 100 (0 no effect, 100 complete control), read-out: Plant response rating, Velvetleaf", "value": 70, "unit": "%"}, {"measurement": "pest or weed control at 62 g/ha", "setting": "[11]; Abutilon theophrasti, post-emergence, 360 h, 62 g ai/ha, scale 0 (no effect) to 100 (complete control), 13 to 15 days, read-out: Plant response rating, Velvetleaf", "value": 75, "unit": "%"}, {"measurement": "pest or weed control at 125 g/ha", "setting": "[11]; Abutilon theophrasti, post-emergence, 360 h, 125 g ai/ha, visual rating after 13 to 15 days, scale 0 (no effect) to 100 (complete control)", "value": 90, "unit": "%"}, {"measurement": "Velvetleaf plant response rating", "setting": "[11]; 250 g ai/ha, scale 0 to 100", "value": 100}, {"measurement": "pest or weed control at 31 g/ha", "setting": "[12]; Cyperus, post-emergence, 31 g ai/ha, scale 0 to 100 (0 no effect, 100 complete control), read-out: Plant response rating, Nutsedge, Yellow", "value": 55, "unit": "%"}, {"measurement": "pest or weed control at 62 g/ha", "setting": "[12]; Cyperus, post-emergence, 62 g ai/ha, scale 0 (no effect) to 100 (complete control), 13 to 15 days, read-out: Plant response rating, Nutsedge, Yellow", "value": 65, "unit": "%"}, {"measurement": "pest or weed control at 125 g/ha", "setting": "[12]; Cyperus, post-emergence, 125 g ai/ha, visual rating after 13 to 15 days, scale 0 (no effect) to 100 (complete control)", "value": 75, "unit": "%"}, {"measurement": "Nutsedge, Yellow plant response rating", "setting": "[12]; 250 g ai/ha, scale 0 to 100", "value": 80}, {"measurement": "Surinam Grass plant response rating", "setting": "[13]; 250 g ai/ha, scale 0 to 100", "value": 90}, {"measurement": "pest or weed control at 31 g/ha", "setting": "[13]; Urochloa decumbens, post-emergence, 31 g ai/ha, scale 0 to 100 (0 no effect, 100 complete control), read-out: Plant response rating, Surinam Grass", "value": 60, "unit": "%"}, {"measurement": "pest or weed control at 62 g/ha", "setting": "[13]; Urochloa decumbens, post-emergence, 62 g ai/ha, scale 0 (no effect) to 100 (complete control), 13 to 15 days, read-out: Plant response rating, Surinam Grass", "value": 70, "unit": "%"}, {"measurement": "pest or weed control at 125 g/ha", "setting": "[13]; Urochloa decumbens, post-emergence, 125 g ai/ha, visual rating after 13 to 15 days, scale 0 (no effect) to 100 (complete control)", "value": 75, "unit": "%"}]}]}
